Results taken from patent publication US11780901B2, “Analogues of parathyroid hormone (1-34) that function as agonists of the parathyroid hormone receptor-1 and display modified activity profiles” (Wisconsin Alumni Research Foundation, priority 2013, dated 2023).
Starred links: 1 amine or outer side, 2 acyl side, 3 side chain; linkers in the order of their positions; H or OH if unused. Non-standard residues stand in square brackets, D forms with d. Residues, ends and D or L forms follow the SMILES beside them. X10 = NC(=O)CC[C@H](CN[*:1])C(=O)[*:2]; X6 = O=C(O)CC[C@H](CN[*:1])C(=O)[*:2]

Experiments:
Assay type in all cases: cell-based
PTHR1 and PTHR2 = experiment: Tolerance pattern of β residues for PTHR1 and PTHR2 activation; design: key: “*” denotes potent PTHR1-selective agonism; “#” denotes potent PTHR2-selective agonism; “*#” denotes potent agonism of both PTHR1 and PTHR2; conditions: PTHR1 vs PTHR2 agonism
Source text: Enhanced selectivity via double α→β replacement.

PTHR1 = target: T1, PTHR1 (Homo sapiens, UniProt Q03431); experiment: PTHR1 activation, cAMP production (GloSensor) in HEK293 cells; design: expressed in transfected cells; conditions: for EC50: HEK-293 cells, GloSensor cAMP, read-out: EC50 (nM) of PTHR1 Activation; for PTHR1 Activation: Derivative EC50/PTH EC50: normalized to EC50 of PTH(1-34)-NH2 ([…]), cAMP production
T1 sequence (Q03431 27-593): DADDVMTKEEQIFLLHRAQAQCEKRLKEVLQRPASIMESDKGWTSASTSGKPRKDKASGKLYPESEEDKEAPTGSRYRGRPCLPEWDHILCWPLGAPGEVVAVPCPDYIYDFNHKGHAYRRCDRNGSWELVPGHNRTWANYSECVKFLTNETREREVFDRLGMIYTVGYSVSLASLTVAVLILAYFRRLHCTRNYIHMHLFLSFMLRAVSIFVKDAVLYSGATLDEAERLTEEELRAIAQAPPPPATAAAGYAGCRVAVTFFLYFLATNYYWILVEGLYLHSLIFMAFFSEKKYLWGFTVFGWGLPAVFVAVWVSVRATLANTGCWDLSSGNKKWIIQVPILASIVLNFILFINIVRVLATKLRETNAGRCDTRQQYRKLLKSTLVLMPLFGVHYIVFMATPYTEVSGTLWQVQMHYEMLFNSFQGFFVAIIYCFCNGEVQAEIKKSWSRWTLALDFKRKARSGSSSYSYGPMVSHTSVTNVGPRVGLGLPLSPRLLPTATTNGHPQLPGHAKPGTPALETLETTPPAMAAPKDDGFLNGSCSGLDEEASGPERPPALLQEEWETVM
Source text: The assays employ HEK-293 cells that have been engineered to express the appropriate receptor. GloSensor-based detection of cAMP provides a read-out of receptor activation.
(§1) For PTHR1 activation and all the binding data, data represent mean±s.e.m from three independent measurements; For PTHR2 activation, data represent mean±s.e.m from four independent measurements. Curves were fit to the data using a four-parameter sigmoidal dose-response equation.
For cAMP dose-response assays, monolayers of confluent HEK 293 cells were pre-incubated with buffer containing d-luciferin (0.5 mM) in 96 well plates at room temperature until a stable baseline level of luminescence was established (30 min). Varying concentrations of agonist were then added, and the time course of luminescence response was recorded using a Perkin Elmer plate reader following α/β-peptide addition.

PTHR2 = PTHR2 (Homo sapiens, UniProt P49190); experiment: PTHR2 activation, cAMP production (GloSensor) in HEK293 cells; design: expressed in transfected cells; key to PTHR2 Activation: Derivative EC50/PTH EC50: *** denotes poor tolerance of β amino acid for PTHR2 activation; conditions: for EC50: HEK-293 cells, GloSensor cAMP, read-out: EC50 (nM) of PTHR2 Activation; for PTHR2 Activation: Derivative EC50/PTH EC50: normalized to EC50 of PTH(1-34)-NH2 ([…] printed), cAMP production
Chain of PTHR2 (P49190 25-550): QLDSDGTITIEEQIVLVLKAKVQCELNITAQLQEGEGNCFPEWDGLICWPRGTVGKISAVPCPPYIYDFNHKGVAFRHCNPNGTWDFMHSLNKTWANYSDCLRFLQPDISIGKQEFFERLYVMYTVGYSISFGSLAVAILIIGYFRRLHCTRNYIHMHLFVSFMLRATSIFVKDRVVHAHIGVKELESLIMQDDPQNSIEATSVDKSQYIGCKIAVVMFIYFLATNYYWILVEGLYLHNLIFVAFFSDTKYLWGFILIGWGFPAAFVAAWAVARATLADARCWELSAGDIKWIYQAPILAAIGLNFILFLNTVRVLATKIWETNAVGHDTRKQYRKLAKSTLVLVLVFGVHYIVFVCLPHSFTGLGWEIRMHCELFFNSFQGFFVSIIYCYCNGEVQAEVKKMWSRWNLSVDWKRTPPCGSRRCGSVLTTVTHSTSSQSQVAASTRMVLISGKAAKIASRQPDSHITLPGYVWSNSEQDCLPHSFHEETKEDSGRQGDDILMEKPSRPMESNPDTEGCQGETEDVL
Source text: The assays employ HEK-293 cells that have been engineered to express the appropriate receptor. GloSensor-based detection of cAMP provides a read-out of receptor activation. […] (Carter, P. H. et al. Actions of the Small Molecule Ligands SW106 and AH-3960 on the Type-1 Parathyroid Hormone Receptor. Molecular Endocrinology 29, 307-321 (2015).)
as §1, with “FIGS. 10A and 10B depict dose-response curves of PTHR1 activation (FIG. 10A) and PTHR2 activation (FIG. 10B) in HEK293 cells stably expressing PTHR1 or PTHR2. For PTHR1” for “For PTHR1”

EC50 (PTHR1) [nM]	PTHR1 Activation: Derivative EC50/PTH EC50 (PTHR1)	Compound	Tolerance Pattern of β AA (PTHR1 and PTHR2)	EC50 (PTHR2) [nM]	PTHR2 Activation: Derivative EC50/PTH EC50 (PTHR2)
7.83 ± 0.4	20.61	CC[C@H](C)[C@H](NC(=O)[C@H](CCC(=O)O)NC(=O)[C@H](CO)NC(=O)[C@@H](NC(=O)[C@@H](N)CO)C(C)C)C(=O)NC[C@@H](CCC(N)=O)C(=O)N[C@@H](CC(C)C)C(=O)N[C@@H](CCSC)C(=O)N[C@@H](Cc1c[nH]cn1)C(=O)N[C@@H](CC(N)=O)C(=O)N[C@@H](CC(C)C)C(=O)NCC(=O)N[C@@H](CCCCN)C(=O)N[C@@H](Cc1c[nH]cn1)C(=O)N[C@@H](CC(C)C)C(=O)N[C@@H](CC(N)=O)C(=O)N[C@@H](CO)C(=O)N[C@@H](CCSC)C(=O)N[C@@H](CCC(=O)O)C(=O)N[C@@H](CCCNC(=N)N)C(=O)N[C@H](C(=O)N[C@@H](CCC(=O)O)C(=O)N[C@@H](Cc1c[nH]c2ccccc12)C(=O)N[C@@H](CC(C)C)C(=O)N[C@@H](CCCNC(=N)N)C(=O)N[C@@H](CCCCN)C(=O)N[C@@H](CCCCN)C(=O)N[C@@H](CC(C)C)C(=O)N[C@@H](CCC(N)=O)C(=O)N[C@@H](CC(=O)O)C(=O)N[C@H](C(=O)N[C@@H](Cc1c[nH]cn1)C(=O)N[C@@H](CC(N)=O)C(=O)N[C@@H](Cc1ccccc1)C(N)=O)C(C)C)C(C)C [SEQ. ID. NO: 27] (H-SVSEI[X10]LMHNLGKHLNSMERVEWLRKKLQDVHNF-NH2; N-terminus assumed)		51.9 ± 8.82	59.70
21 ± 2.3		CC[C@H](C)[C@H](NC(=O)[C@H](CCC(=O)O)NC(=O)[C@H](CO)NC(=O)[C@@H](NC(=O)[C@@H](N)CO)C(C)C)C(=O)N[C@@H](CCC(N)=O)C(=O)N[C@@H](CC(C)C)C(=O)N[C@@H](CCSC)CC(=O)N[C@@H](Cc1cnc[nH]1)C(=O)N[C@@H](CC(N)=O)C(=O)N[C@@H](CC(C)C)C(=O)NCC(=O)N[C@@H](CCCCN)C(=O)N[C@@H](Cc1cnc[nH]1)C(=O)N[C@@H](CC(C)C)C(=O)N[C@@H](CC(N)=O)C(=O)N[C@@H](CO)C(=O)N[C@@H](CCSC)C(=O)N[C@@H](CCC(=O)O)C(=O)N[C@@H](CCCNC(=N)N)C(=O)N[C@H](C(=O)N[C@@H](CCC(=O)O)C(=O)N[C@@H](Cc1c[nH]c2ccccc12)C(=O)N[C@@H](CC(C)C)C(=O)N[C@@H](CCCNC(=N)N)C(=O)N[C@@H](CCCCN)C(=O)N[C@@H](CCCCN)C(=O)N[C@@H](CC(C)C)C(=O)N[C@@H](CCC(N)=O)C(=O)N[C@@H](CC(=O)O)C(=O)N[C@H](C(=O)N[C@@H](Cc1cnc[nH]1)C(=O)N[C@@H](CC(N)=O)C(=O)N[C@@H](Cc1ccccc1)C(N)=O)C(C)C)C(C)C [SEQ. ID. NO: 45]		> 100	

Continued, compound first:

Compound	EC50 (PTHR1) [nM]	PTHR1 Activation: Derivative EC50/PTH EC50 (PTHR1)	Tolerance Pattern of β AA (PTHR1 and PTHR2)	EC50 (PTHR2) [nM]	PTHR2 Activation: Derivative EC50/PTH EC50 (PTHR2)
CC[C@H](C)[C@H](NC(=O)[C@H](CCC(=O)O)NC(=O)C[C@H](CO)NC(=O)[C@@H](NC(=O)[C@@H](N)CO)C(C)C)C(=O)N[C@@H](CCC(N)=O)C(=O)N[C@@H](CC(C)C)C(=O)N[C@@H](CCSC)C(=O)N[C@@H](Cc1c[nH]cn1)C(=O)N[C@@H](CC(N)=O)C(=O)N[C@@H](CC(C)C)C(=O)NCC(=O)N[C@@H](CCCCN)C(=O)N[C@@H](Cc1c[nH]cn1)C(=O)N[C@@H](CC(C)C)C(=O)N[C@@H](CC(N)=O)C(=O)N[C@@H](CO)C(=O)N[C@@H](CCSC)C(=O)N[C@@H](CCC(=O)O)C(=O)N[C@@H](CCCNC(=N)N)C(=O)N[C@H](C(=O)N[C@@H](CCC(=O)O)C(=O)N[C@@H](Cc1c[nH]c2ccccc12)C(=O)N[C@@H](CC(C)C)C(=O)N[C@@H](CCCNC(=N)N)C(=O)N[C@@H](CCCCN)C(=O)N[C@@H](CCCCN)C(=O)N[C@@H](CC(C)C)C(=O)N[C@@H](CCC(N)=O)C(=O)N[C@@H](CC(=O)O)C(=O)N[C@H](C(=O)N[C@@H](Cc1c[nH]cn1)C(=O)N[C@@H](CC(N)=O)C(=O)N[C@@H](Cc1ccccc1)C(N)=O)C(C)C)C(C)C [SEQ. ID. NO: 40]			#		
CC[C@H](C)[C@H](NC(=O)[C@H](CCC(=O)O)NC(=O)[C@H](CO)NC(=O)[C@@H](CNC(=O)[C@@H](N)CO)C(C)C)C(=O)N[C@@H](CCC(N)=O)C(=O)N[C@@H](CC(C)C)C(=O)N[C@@H](CCSC)C(=O)N[C@@H](Cc1c[nH]cn1)C(=O)N[C@@H](CC(N)=O)C(=O)N[C@@H](CC(C)C)C(=O)NCC(=O)N[C@@H](CCCCN)C(=O)N[C@@H](Cc1c[nH]cn1)C(=O)N[C@@H](CC(C)C)C(=O)N[C@@H](CC(N)=O)C(=O)N[C@@H](CO)C(=O)N[C@@H](CCSC)C(=O)N[C@@H](CCC(=O)O)C(=O)N[C@@H](CCCNC(=N)N)C(=O)N[C@H](C(=O)N[C@@H](CCC(=O)O)C(=O)N[C@@H](Cc1c[nH]c2ccccc12)C(=O)N[C@@H](CC(C)C)C(=O)N[C@@H](CCCNC(=N)N)C(=O)N[C@@H](CCCCN)C(=O)N[C@@H](CCCCN)C(=O)N[C@@H](CC(C)C)C(=O)N[C@@H](CCC(N)=O)C(=O)N[C@@H](CC(=O)O)C(=O)N[C@H](C(=O)N[C@@H](Cc1c[nH]cn1)C(=O)N[C@@H](CC(N)=O)C(=O)N[C@@H](Cc1ccccc1)C(N)=O)C(C)C)C(C)C [SEQ. ID. NO: 23]	4.47 ± 0.47	11.76	#		
CC[C@H](C)[C@H](NC(=O)[C@H](CCC(=O)O)NC(=O)[C@H](CO)NC(=O)C[C@@H](NC(=O)[C@@H](N)CO)C(C)C)C(=O)N[C@@H](CCC(N)=O)C(=O)N[C@@H](CC(C)C)C(=O)N[C@@H](CCSC)C(=O)N[C@@H](Cc1c[nH]cn1)C(=O)N[C@@H](CC(N)=O)C(=O)N[C@@H](CC(C)C)C(=O)NCC(=O)N[C@@H](CCCCN)C(=O)N[C@@H](Cc1c[nH]cn1)C(=O)N[C@@H](CC(C)C)C(=O)N[C@@H](CC(N)=O)C(=O)N[C@@H](CO)C(=O)N[C@@H](CCSC)C(=O)N[C@@H](CCC(=O)O)C(=O)N[C@@H](CCCNC(=N)N)C(=O)N[C@H](C(=O)N[C@@H](CCC(=O)O)C(=O)N[C@@H](Cc1c[nH]c2ccccc12)C(=O)N[C@@H](CC(C)C)C(=O)N[C@@H](CCCNC(=N)N)C(=O)N[C@@H](CCCCN)C(=O)N[C@@H](CCCCN)C(=O)N[C@@H](CC(C)C)C(=O)N[C@@H](CCC(N)=O)C(=O)N[C@@H](CC(=O)O)C(=O)N[C@H](C(=O)N[C@@H](Cc1c[nH]cn1)C(=O)N[C@@H](CC(N)=O)C(=O)N[C@@H](Cc1ccccc1)C(N)=O)C(C)C)C(C)C [SEQ. ID. NO: 39]			*#		
CC[C@H](C)[C@H](NC(=O)[C@H](CCC(=O)O)CNC(=O)[C@H](CO)NC(=O)[C@@H](NC(=O)[C@@H](N)CO)C(C)C)C(=O)N[C@@H](CCC(N)=O)C(=O)N[C@@H](CC(C)C)C(=O)N[C@@H](CCSC)C(=O)N[C@@H](Cc1c[nH]cn1)C(=O)N[C@@H](CC(N)=O)C(=O)N[C@@H](CC(C)C)C(=O)NCC(=O)N[C@@H](CCCCN)C(=O)N[C@@H](Cc1c[nH]cn1)C(=O)N[C@@H](CC(C)C)C(=O)N[C@@H](CC(N)=O)C(=O)N[C@@H](CO)C(=O)N[C@@H](CCSC)C(=O)N[C@@H](CCC(=O)O)C(=O)N[C@@H](CCCNC(=N)N)C(=O)N[C@H](C(=O)N[C@@H](CCC(=O)O)C(=O)N[C@@H](Cc1c[nH]c2ccccc12)C(=O)N[C@@H](CC(C)C)C(=O)N[C@@H](CCCNC(=N)N)C(=O)N[C@@H](CCCCN)C(=O)N[C@@H](CCCCN)C(=O)N[C@@H](CC(C)C)C(=O)N[C@@H](CCC(N)=O)C(=O)N[C@@H](CC(=O)O)C(=O)N[C@H](C(=O)N[C@@H](Cc1c[nH]cn1)C(=O)N[C@@H](CC(N)=O)C(=O)N[C@@H](Cc1ccccc1)C(N)=O)C(C)C)C(C)C [SEQ. ID. NO: 25] (H-SVS[X6]IQLMHNLGKHLNSMERVEWLRKKLQDVHNF-NH2; N-terminus assumed)	22.9 ± 1.89	60.26		> 1000	***
